Results published in patent publication US20230265116A1, “DEGRADATION OF (EGFR) BY CONJUGATION OF EGFR INHIBITORS WITH E3 LIGASE LIGAND AND METHODS OF USE” (BEIGENE, LTD., priority 2020, published 2023).
Like-named read-outs stand apart in the source and are kept apart here.

Key:
[1] = tested on: EGFR Del19/T790M/C797S (H1975-clone #28); test: EGFR degradation HTRF assay, H1975-clone #28 DTC cells; assay type: cell-based
How it was run: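 The test uses H1975 clonal lines carrying lentiviral mutant EGFR with endogenous copies removed, treated 16h at 37° C., 5% CO2. EGFR left in the lysate is quantified by HTRF, and DC50 is derived from an 8-dose curve starting at 10 uM final.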

[2] = biological target: T1, EGFR L858R/T790M/C797S (BaF3-LTC cells) (Homo sapiens, UniProt P00533, C797S/L858R/T790M); test: EGFR degradation HTRF assay, BaF3-LTC cells; assay type: cell-based
T1 construct: expressed in transfected cells; host or cells: BaF3
How it was run: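 Cells treated 16 h at 37 °C, 5% CO2 in medium with 0.2% DMSO; top final concentration 10 uM, 5-fold dilution, 8 doses. Lysates read by HTRF (665/620 nm); degradation % versus DMSO high control, DC50 from four-parameter fit, Dmax as maximal degradation.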

[3] = H1975 # 28 DTC cells; EGFR degradation, IC50 (DC50) from curve fit; read-out: DC50(nM) H1975 # 28 DTC
[4] = H1975 # 28 DTC cells; maximum percentage of inhibition (degradation)
[5] = BaF3-LTC cells; EGFR degradation, IC50 (DC50) from curve fit; read-out: DC50(nM) BaF3-LTC
[6] = BaF3-LTC cells; maximum percentage of inhibition (degradation); read-out: Dmax (%) BaF3-LTC

T1 sequence (P00533 25-1210 T790M/C797S/L858R): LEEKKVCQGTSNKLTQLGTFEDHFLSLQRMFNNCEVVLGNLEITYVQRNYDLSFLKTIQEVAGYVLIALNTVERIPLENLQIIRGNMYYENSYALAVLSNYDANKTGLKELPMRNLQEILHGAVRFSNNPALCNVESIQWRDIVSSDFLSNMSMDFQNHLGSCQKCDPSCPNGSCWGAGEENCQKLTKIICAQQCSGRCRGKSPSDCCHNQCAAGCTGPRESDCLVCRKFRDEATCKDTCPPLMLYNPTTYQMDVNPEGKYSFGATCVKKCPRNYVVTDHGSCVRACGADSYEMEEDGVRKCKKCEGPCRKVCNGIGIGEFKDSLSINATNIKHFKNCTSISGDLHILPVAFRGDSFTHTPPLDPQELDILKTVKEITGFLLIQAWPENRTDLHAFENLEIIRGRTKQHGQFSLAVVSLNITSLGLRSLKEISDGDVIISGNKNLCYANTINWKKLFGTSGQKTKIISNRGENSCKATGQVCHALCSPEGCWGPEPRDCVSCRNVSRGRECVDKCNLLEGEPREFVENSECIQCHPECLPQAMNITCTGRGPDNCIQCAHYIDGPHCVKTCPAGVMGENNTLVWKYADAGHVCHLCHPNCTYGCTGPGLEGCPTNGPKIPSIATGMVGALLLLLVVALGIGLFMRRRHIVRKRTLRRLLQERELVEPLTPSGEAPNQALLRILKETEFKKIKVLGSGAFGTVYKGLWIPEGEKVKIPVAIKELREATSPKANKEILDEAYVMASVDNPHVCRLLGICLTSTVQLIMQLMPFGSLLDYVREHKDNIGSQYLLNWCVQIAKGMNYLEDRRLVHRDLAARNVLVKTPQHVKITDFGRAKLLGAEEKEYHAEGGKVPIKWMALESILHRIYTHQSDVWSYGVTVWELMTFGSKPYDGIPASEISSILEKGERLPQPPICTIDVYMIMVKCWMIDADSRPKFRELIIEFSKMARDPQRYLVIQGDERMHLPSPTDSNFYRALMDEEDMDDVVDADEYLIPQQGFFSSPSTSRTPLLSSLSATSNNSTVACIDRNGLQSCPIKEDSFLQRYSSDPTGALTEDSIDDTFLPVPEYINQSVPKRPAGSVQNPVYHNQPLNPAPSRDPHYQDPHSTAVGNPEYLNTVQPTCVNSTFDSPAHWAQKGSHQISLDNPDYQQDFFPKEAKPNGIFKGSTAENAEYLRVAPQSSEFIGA

Row | Compound | DC50 [1, 3] | Dmax (%) H1975 # 28 DTC [1, 4] | DC50 [2, 5] | Dmax [2, 6] | DC50 ([1]; read-out: DC50(nM) H1975 # 28 DTC; H1975 # 28 DTC cells; EGFR degradation, IC50 (DC50) from curve fit) | DC50 ([2]; read-out: DC50(nM) BaF3-LTC; BaF3-LTC cells; EGFR degradation, IC50 (DC50) from curve fit) | Dmax ([2]; read-out: Dmax (%) BaF3-LTC, BaF3-LTC cells; maximum percentage of inhibition (degradation))
1 | CCOc1cc(N2CCC(N3CCN(CCc4cc5oc(=O)n(C6CCC(=O)NC6=O)c5cc4C(F)(F)F)CC3)CC2)c(CC)cc1Nc1ncc(Br)c(Nc2ccc3nc(CC)ccc3c2P(C)(C)=O)n1 (stereo not drawn) [Example 616, 3-(6-(2-(4-(1-(4-((5-bromo-4-((5-(dimethylphosphoryl)-2-ethylquinolin-6-yl)amino)pyrimidin-2-yl)amino)-5-ethoxy-2-ethylphenyl)piperidin-4-yl)piperazin-1-yl)ethyl)-2-oxo-5-(trifluoromethyl)benzo[d]oxazol-3(2H)-yl)piperidine-2,6-dione] | 5.75 nM | 70.93% | 43.1 nM | 83.8% |  |  | 
2 | CCc1ccc2c(P(C)(C)=O)c(Nc3nc(Nc4cc(CC)c(N5CCC(N6CCN(C[C@H]7C[C@H](N(C)c8cc(F)c(C9CCC(=O)NC9=O)c(F)c8)C7)CC6)CC5)cc4OC)ncc3Br)ccc2n1 (stereo partly drawn) [Example 691, 3-(4-(((1r,3r)-3-((4-(1-(4-((5-bromo-4-((5-(dimethylphosphoryl)-2-ethylquinolin-6-yl)amino)pyrimidin-2-yl)amino)-2-ethyl-5-methoxyphenyl)piperidin-4-yl)piperazin-1-yl)methyl)cyclobutyl)(methyl)amino)-2,6-difluorophenyl)piperidine-2,6-dione] | 3.3 nM | 71.66% | 24.6 nM | 93.4% |  |  | 
3 | CCOc1cc(N2CCC(N3CCN(CC4CCN(c5cccc6c5oc(=O)n6C5CCC(=O)NC5=O)CC4)CC3)CC2)c(CC)cc1Nc1ncc(Br)c(Nc2ccc3c(=O)n(CC)ncc3c2P(C)(C)=O)n1 (stereo not drawn) [Example 582, 3-(7-(4-((4-(1-(4-((5-bromo-4-((5-(dimethylphosphoryl)-2-ethyl-1-oxo-1,2-dihydrophthalazin-6-yl)amino)pyrimidin-2-yl)amino)-5-ethoxy-2-ethylphenyl)piperidin-4-yl)piperazin-1-yl)methyl)piperidin-1-yl)-2-oxobenzo[d]oxazol-3(2H)-yl)piperidine-2,6-dione] | 1.06 nM | 79.64% | 8.54 nM | 93.1% |  |  | 
4 | CCc1cc(Nc2ncc(Br)c(Nc3ccc4nc(C)ccc4c3P(C)(C)=O)n2)c(OC2CC2)cc1N1CCC(N2CCN(C(=O)[C@@H]3CCN(c4cc(F)c([C@H]5CCC(=O)NC5=O)c(F)c4)C3)CC2)CC1 [Example 544, (R)-3-(4-((R)-3-(4-(1-(4-((5-bromo-4-((5-(dimethylphosphoryl)-2-methylquinolin-6-yl)amino)pyrimidin-2-yl)amino)-5-cyclopropoxy-2-ethylphenyl)piperidin-4-yl)piperazine-1-carbonyl)pyrrolidin-1-yl)-2,6-difluorophenyl)piperidine-2,6-dione] | 1.48 nM | 81.13% | 12.5 nM | 90.3% |  |  | 
5 | CCOc1cc(N2CCC(N3CCN(CCc4cc(F)c([C@H]5CCC(=O)NC5=O)c(F)c4)CC3)CC2)c(CC)cc1Nc1nccc(Nc2ccc3nc(CC)ncc3c2P(C)(C)=O)n1 [Example 749, (R)-3-(4-(2-(4-(1-(4-((4-((5-(dimethylphosphoryl)-2-ethylquinazolin-6-yl)amino)pyrimidin-2-yl)amino)-5-ethoxy-2-ethylphenyl)piperidin-4-yl)piperazin-1-yl)ethyl)-2,6-difluorophenyl)piperidine-2,6-dione] | 14.8 nM | 66.03% | 294 nM |  |  |  | 
6 | CCc1ccc2c(P(C)(C)=O)c(Nc3nc(Nc4cc(CC)c(N5CCC(N6CCN(C(=O)C78CCC(Nc9cc(F)c([C@H]%10CCC(=O)NC%10=O)c(F)c9)(CC7)C8)CC6)CC5)cc4OC)ncc3Br)ccc2n1 [Example 663, (R)-3-(4-((4-(4-(1-(4-((5-bromo-4-((5-(dimethylphosphoryl)-2-ethylquinolin-6-yl)amino)pyrimidin-2-yl)amino)-2-ethyl-5-methoxyphenyl)piperidin-4-yl)piperazine-1-carbonyl)bicyclo[2.2.1]heptan-1-yl)amino)-2,6-difluorophenyl)piperidine-2,6-dione] | 1.81 nM | 74.11% | 3.98 nM | 95.8% |  |  | 
7 | CCOc1cc(N2CCC(N3CCN(CCc4c(F)ccc5c4n(C)c(=O)n5C4CCC(=O)NC4=O)CC3)CC2)c(CC)cc1Nc1ncc(Br)c(Nc2ccc3nc(CC)ccc3c2P(C)(C)=O)n1 (stereo not drawn) [Example 648, 3-(4-(2-(4-(1-(4-((5-bromo-4-((5-(dimethylphosphoryl)-2-ethylquinolin-6-yl)amino)pyrimidin-2-yl)amino)-5-ethoxy-2-ethylphenyl)piperidin-4-yl)piperazin-1-yl)ethyl)-5-fluoro-3-methyl-2-oxo-2,3-dihydro-1H-benzo[d]imidazol-1-yl)piperidine-2,6-dione] | 4.01 nM | 81.9% | 15.3 nM | 95.8% |  |  | 
8 | CCOc1cc(N2CCC(N3CCN(CCc4ccc5c(oc(=O)n5C5CCC(=O)NC5=O)c4F)CC3)CC2)c(CC)cc1Nc1ncc(Br)c(Nc2ccc3nc(CC)ccc3c2P(C)(C)=O)n1 (stereo not drawn) [Example 555, 3-(6-(2-(4-(1-(4-((5-bromo-4-((5-(dimethylphosphoryl)-2-ethylquinolin-6-yl)amino)pyrimidin-2-yl)amino)-5-ethoxy-2-ethylphenyl)piperidin-4-yl)piperazin-1-yl)ethyl)-7-fluoro-2-oxobenzo[d]oxazol-3(2H)-yl)piperidine-2,6-dione] | 1.89 nM | 77.45% | 7.36 nM | 94.5% |  |  | 
9 | CCc1cnc2c(P(C)(C)=O)c(Nc3nc(Nc4cc(CC)c(N5CCC(N6CCN(C(=O)[C@@H]7CCN(c8cc(F)c([C@H]9CCC(=O)NC9=O)c(F)c8)C7)CC6)CC5)cc4OC)ncc3Br)ccc2n1 [Example 538, (R)-3-(4-((R)-3-(4-(1-(4-((5-bromo-4-((5-(dimethylphosphoryl)-2-ethylquinoxalin-6-yl)amino)pyrimidin-2-yl)amino)-2-ethyl-5-methoxyphenyl)piperidin-4-yl)piperazine-1-carbonyl)pyrrolidin-1-yl)-2,6-difluorophenyl)piperidine-2,6-dione] | 2.39 nM | 80.57% | 16.2 nM | 89.6% |  |  | 
10 | CCOc1cc(N2CCC(N3CCN(CCc4c(F)ccc5c4oc(=O)n5C4CCC(=O)NC4=O)CC3)CC2)c(CC)cc1Nc1ncc(Br)c(Nc2ccc3nc(CC)ccc3c2P(C)(C)=O)n1 (stereo not drawn) [Example 471, 3-(7-(2-(4-(1-(4-((5-bromo-4-((5-(dimethylphosphoryl)-2-ethylquinolin-6-yl)amino)pyrimidin-2-yl)amino)-5-ethoxy-2-ethylphenyl)piperidin-4-yl)piperazin-1-yl)ethyl)-6-fluoro-2-oxobenzo[d]oxazol-3(2H)-yl)piperidine-2_6-dione] | 1.98 nM | 73.66% | 36 nM | 83.9% |  |  | 
11 | CCc1cc(Nc2ncc(Br)c(Nc3ccc4nc(C)ccc4c3P(C)(C)=O)n2)c(OC)cc1N1CCC(N2CCN(CC3CN(c4ccc5c(c4)oc(=O)n5C4CCC(=O)NC4=O)C3)CC2)CC1 (stereo not drawn) [Example 537, 3-(6-(3-((4-(1-(4-((5-bromo-4-((5-(dimethylphosphoryl)-2-methylquinolin-6-yl)amino)pyrimidin-2-yl)amino)-2-ethyl-5-methoxyphenyl)piperidin-4-yl)piperazin-1-yl)methyl)azetidin-1-yl)-2-oxobenzo[d]oxazol-3(2H)-yl)piperidine-2,6-dione] | 0.223 nM | 65.01% | 0.934 nM | 94% |  |  | 
12 | CCOc1cc(N2CCC(N3CCN(CCCc4cc(Cl)cc5c4oc(=O)n5C4CCC(=O)NC4=O)CC3)CC2)c(CC)cc1Nc1ncc(Br)c(Nc2ccc3nc(CC)ccc3c2P(C)(C)=O)n1 (stereo not drawn) [Example 726, 3-(7-(3-(4-(1-(4-((5-bromo-4-((5-(dimethylphosphoryl)-2-ethylquinolin-6-yl)amino)pyrimidin-2-yl)amino)-5-ethoxy-2-ethylphenyl)piperidin-4-yl)piperazin-1-yl)propyl)-5-chloro-2-oxobenzo[d]oxazol-3(2H)-yl)piperidine-2,6-dione] | 1.46 nM | 74.13% | 7.11 nM | 96.7% |  |  | 
13 | CCc1ccc2c(P(C)(C)=O)c(Nc3nc(Nc4cc(CC)c(N5CCC(N6CCN(C(=O)C7CN(c8cc(F)cc9c8oc(=O)n9C8CCC(=O)NC8=O)C7)CC6)CC5)cc4OC)ncc3Br)ccc2n1 (stereo not drawn) [Example 447, 3-(7-(3-(4-(1-(4-((5-bromo-4-((5-(dimethylphosphoryl)-2-ethylquinolin-6-yl)amino)pyrimidin-2-yl)amino)-2-ethyl-5-methoxyphenyl)piperidin-4-yl)piperazine-1-carbonyl)azetidin-1-yl)-5-fluoro-2-oxobenzo[d]oxazol-3(2H)-yl)piperidine-2,6-dione] |  | 77.96% |  |  | 0.526 nM | 2.27 nM | 83.2%
